According to US20170226507A1, “COORDINATE CONTROL OF PATHOGENIC SIGNALING BY THE MIR-130/301 FAMILY IN PULMONARY HYPERTENSION AND FIBROPROLIFERATIVE DISEASES” (The Brigham and Women's Hospital, Inc., priority 2014, published 2017):
“Also recorded” adds a separate entry of the source.

Tests used:
Type in all cases: cell-based, human
miR-130/301 family = experiment: RT-qPCR of miR-130/301 family members after transfection of oligonucleotide inhibitors (specificity), PASMCs; conditions: normoxia and hypoxia
Source text: FIGS. 14A-14C show the comparison of the specificity of miR-130/301 oligonucleotide inhibitors. (FIG. 14A) Overview of the miRNA silencing approach using seed-targeting tiny locked nucleic acid (LNA) molecules. Tiny LNAs were designed as fully LNA-modified oligonucleotides complementary to the seed region of the miR-130/301 family. The high binding affinity of tiny LNA enables functional inhibition of co-expressed members of miRNA seed families, which leads to de-repression of target mRNAs. Sequences shown in FIG. 14A are miR-130a (SEQ ID NO: 4), miR-130b (SEQ ID NO: 5), miR-301a (SEQ ID NO: 6), miR-301b (SEQ ID NO: 7) and tiny-LNA-130 ([…] SEQ ID NO: 3). […] In the setting of exposure to hypoxia (0.2% O2; 24 h) or normoxia (21% O2; 24 h), expression levels of miR-130/301 family members in PAECs (FIG. 14B) and PASMCs (FIG. 14C) were quantified after transfection with anti-miR-130a versus control (anti-miR-NC) (left panels) or tiny-LNA-130 versus control (tiny-LNA-NC) (right panels). […]
Cells were homogenized in 2 ml of QiaZol reagent (Qiagen). […] Total RNA concentration was determined using a ND-1000 micro-spectrophotometer (NanoDrop Technologies).
Mature miRNA expression was evaluated using TaqMan MicroRNA Assays (Life Technologies/Applied Biosystems) and the Applied Biosystems 7900HT Fast Real Time PCR device (Life Technologies/Applied Biosystems). […]

PAECs = experiment: Gene/miRNA expression in transfected or drug-treated PAECs (immunoblotting, RT-qPCR)
Source text: (§1) Pre-miRNA oligonucleotides (pre-miR-130a, pre-miR-204, pre-miR-424, and pre-miR-503 and negative control pre-miR-NC1 and premiR-NC2, Life Technologies), anti-miRNAs oligonucleotides (anti-miR-130a and anti-miR-NC, ThermoScientific), tiny LNA oligonucleotides (tiny-130: 5′-[…]-3′ (SEQ ID NO: 3), and tiny-NC 5′-[…]-3′ (SEQ ID NO: 51), Exiqon), siRNAs (PPARγ and scrambled control, Santa Cruz Biotechnology; HIF-1α, HIF-2α, and scrambled control, Life Technologies) were commercially purchased. PAECs and PASMCs were plated and transfected 24 h later at 70-80% confluence using pre-miRNA (5 nM), anti-miRNA (20 nM), tiny-LNA (20 nM) or siRNA (25 nM) with Lipofectamine 2000 reagent (Life Technologies), according to the manufacturers' instructions.
(§2) Primary human pulmonary arterial endothelial cells (PAECs) were purchased and propagated in EGM-2 cell culture media (Lonza). Experiments were performed at passages 3 to 6. Primary human pulmonary arterial smooth muscle cells (PASMCs) were purchased and propagated in SmGM-2 cell culture media (Lonza). Experiments were performed at passages 3 to 9. HEK293T cells (American Type Culture Collection) were used and cultivated in DMEM containing 10% fetal bovine serum (FBS). Cells were cultured at 37° C. in a humidified 5% CO2 atmosphere. A modular hypoxia chamber at 0.2% oxygen, 94.8% nitrogen and 5% carbon dioxide was used during 24 h for hypoxic conditions. Cultured cells were exposed to recombinant human IL-1α at 10 ng·mL-1 (Peprotech). Recombinant human IL-6 (Peprotech) was used at 100 ng·mL-1. Rosiglitazone (Sigma) was used at 10 μM.
(§3) Mature miRNA expression was evaluated using TaqMan MicroRNA Assays (Life Technologies/Applied Biosystems) and the Applied Biosystems 7900HT Fast Real Time PCR device (Life Technologies/Applied Biosystems). Expression levels were normalized to RNU48 or snoR55 for human or mouse experiments, respectively, and calculated using the comparative Ct method (2^−ΔΔCt) as we previously described (1).
(§4) Messenger RNAs were reverse transcribed using the Multiscript RT kit (Life Technologies) to generate cDNA. cDNA was amplified via fluorescently labeled Taqman primer sets using an Applied Biosystems 7900HT Fast Real Time PCR device, as we previously described (1). Fold-change of RNA species was calculated using the formula (2^−ΔΔCt), normalized to actin expression.
(§5) Cells were lysed in RIPA buffer (Santa Cruz Biotechnology) and the protein concentration determined using a Bradford assay (Biorad). Protein lysate ([…]) were resolved by SDS-PAGE and transferred onto a PVDF membrane (Biorad). Membranes were blocked in 5% non-fat milk in TN buffer (50 mM Tris-HCl pH 7.4, 150 mM NaCl) and incubated in the presence of the primary and then secondary antibodies. After washing in TN buffer containing 0.1% Tween, immunoreactive bands were visualized with the ECL system (Amersham Biosciences). […] Primary antibodies for STAT3 (#9139) and P-STAT3 (Tyr-705; #9145) were purchased from Cell Signaling. Primary antibodies against actin (ab 3280), α-smooth-muscle-actin (ab 32575), CD31 (ab28364), and PCNA (ab 29) were obtained from Abcam. Appropriate secondary antibodies (anti-rabbit and anti-mouse) coupled to HRP were used (Santa Cruz Biotechnology).
Pre-miRNA oligonucleotides (pre-miR-130a and negative control pre-miR-NC1 and premiR-NC2), anti-miRNAs oligonucleotides (anti-miR-130a and anti-miR-NC), and custom designed tiny LNA oligonucleotides (tiny-130: 5′-[…]-3′ (SEQ ID NO: 3), and tiny-NC 5′-[…]-3′ (SEQ ID NO: 51)) were purchased from Life Technologies/Ambion, ThermoScientific/Dharmacon, and Exiqon, respectively. siRNAs for PPARγ and scrambled control were purchased from Santa Cruz Biotechnology. PAEC and PASMC were plated and transfected 24 h later at 70-80% confluence using pre-miRNA (5 nM), anti-miRNA (20 nM), tiny-LNA (20 nM) or siRNA (25 nM) and Lipofectamine 2000 reagent (Life Technologies), according to the manufacturers' instructions. […]

PASMCs = experiment: Gene/miRNA expression in transfected or drug-treated PASMCs (immunoblotting, RT-qPCR)
Source text: as §1, §2, §3, §4, §5

[1] = normoxia or hypoxia, compared with anti-miR-130a
[2] = tiny-LNA-130: stiffness-mediated up-regulation
[3] = transcripts 48 h after transfection

“tiny-LNA-130: fully LNA-modified tiny LNA oligonucleotide 5′-ATTGCACT-3′ (SEQ ID NO: 3) complementary to the seed region of the miR-130/301 family (all LNA, backbone and methylation of C not given here)” was tested, and the “expression of all miR-130/301 family members” value (miR-130/301 family) was “down-regulated; also recorded: effective inhibitors of the entire miR-130/301 family”, the PPARγ expression (PAECs; immunoblotting, densitometry) was “increased” and the “downstream gene/subordinate miRNA alterations (PPARγ, apelin, miR-424, miR-503, FGF2)” value (PAECs; [1]) was “reversed these downstream gene/subordinate miRNA alterations to a greater extent than inhibition of miR-130a alone”. The “collagen, CTGF, and LOX” value (PAECs; [2]) was “reversed”, the CCND1 expression (PAECs; [3]) was “decreased” and the “CDKN1A, CDKN1B and CDKN2A expression” value (PAECs; [3]) was “increased”. For the same substance, the “gene expression changes in VEGFA, EDN1 and NOS3” value (PAECs; vs tiny-LNA-NC, transcript in hypoxia, protein in normoxia) was “reversed these gene expression changes”, the “downstream gene/subordinate miRNA alterations (PPARγ, STAT3, P-STAT3, miR-204)” value (PASMCs; [1]) was “reversed such downstream gene/subordinate miRNA alterations to a greater extent than inhibition of miR-130a alone” and the “collagen, CTGF, and LOX” value (PASMCs; [2]) was “reversed”. The CCND1 expression (PASMCs; transcripts) was “decreased”, the “CDKN1A, CDKN1B and CDKN2A expression” value (PASMCs; transcripts) was “increased” and the “NFATC2 and PIM1 expression” value (PASMCs; [3]) was “decreased”.
